The values below come from patent US10208000B2, “Eis inhibitors” (priority 2015, dated 2019).

Assay [1] deals with Eis_Mtb acetyltransferase (Mycobacterium tuberculosis (strain ATCC 25618 / H37Rv), UniProt P9WFK7). Format: biochemical. The settings on record: library compounds 20 μM.
The subject of the next assay is Mtb K204. In kind it is cell-based, Mycobacterium tuberculosis.
Assay [2] deals with T1, purified Eis (Mycobacterium tuberculosis (strain ATCC 25618 / H37Rv), UniProt P9WFK7). Format: biochemical.
A further assay relates to H37Rv Mtb. The experiment in a line: Mycobacterial MIC determination by alamar blue assay, KAN with sulfonyl isothiazoles. In kind it is cell-based, Mycobacterium tuberculosis. The settings on record: KAN MIC in presence of compound at concentration tested (100x IC50 or 20 μM); KAN line = absence of compound. On the technique in general: Alamar Blue is a resazurin reagent that responds to reducing activity.

The next assay relates to K204 Mtb. In kind it is cell-based, Mycobacterium tuberculosis. The settings on record: KAN MIC in presence of compound at concentration tested (100x IC50 or 20 μM); KAN line = absence of compound.
Assay [3] concerns the target T2, AAC(2′)-Ic (Mycobacterium tuberculosis (strain ATCC 25618 / H37Rv), UniProt P9WQG9). The experiment in a line: biochemical. The arrangement: species or system Mtb.
Assay [4] relates to AAC(3)-IV. The experiment in a line: Inhibitor selectivity, sulfonamides. In kind it is biochemical, E. coli. The settings on record: concentrations as high as 200 μM. How it is done: (§1) To examine the selectivity of our two best inhibitors (39 and 46) towards Eis, next these two compounds were tested against three other AAC enzymes: AAC(2′)-Ic from Mtb (17, 18), AAC(3)-IV from E. coli (19, 20), and AAC(6′)-Ie/APH(2″)-Ia from Staphylococcus aureus (21, 22).
(§2) The conditions utilized for determination of IC50 values were also used here under the optimum conditions for each enzyme. […] AAC(6′)-Ie/APH(2″)-Ia experiments were incubated at 37° C. All other methods and concentrations are the same as for the experiments with Eis_Mtb.

Assay [5] concerns the target T3, AAC(6′)-Ie/APH(2″)-Ia (Staphylococcus aureus, UniProt P0A0C1). The experiment in a line: Inhibitor selectivity, sulfonamides. Format: biochemical. The settings on record: concentrations as high as 200 μM. As for the experimental part:
as §1, §2

Another assay has as its system Mtb H37Rv. The experiment in a line: Mycobacterial MIC determination by alamar blue, KAN with sulfonamides. Format: cell-based, Mycobacterium tuberculosis. The settings on record: anti-TB activity of KAN against Mtb H37Rv with compound; KAN line = KAN alone.
Assay [6] deals with T3, AAC(6′)-Ie/APH(2″)-Ia. The experiment in a line: Inhibitor selectivity, sulfonyl isothiazoles. In kind it is biochemical. The settings on record: optimal reaction conditions for the enzyme.
Assay [7] has as its system AAC(3)-IV. The experiment in a line: Inhibitor selectivity, sulfonyl isothiazoles. Format: biochemical, E. coli. The settings on record: optimal reaction conditions for the enzyme.
For assay [8], the target named is T1, purified Eis. The settings on record: read-out: IC50 (μM) in the Eis acetyltransferase assay.
The target of assay [9] is T2, AAC(2′)-Ic.
Procedure: The conditions described above for determination of IC50 values were used under the optimum conditions for each enzyme. […] AAC(6′)/APH(2″) experiments were incubated at 37° C. while AAC(3)-IV and AAC(2′)-Ic experiments were incubated at 25° C. All other methods and concentrations remained identical to those for the experiments with Eis.

`CN(c1ccc(Br)cc1)S(=O)(=O)c1ccc2[nH]c(=O)c(=O)[nH]c2c1` [Compound 29]: the “Eis inhibition in the HTS” value in assay [1] is given as “identified as hits”. Moreover, the “reduction of KAN MIC value compared to KAN alone” value in the assay on Mtb K204 (K204 Mtb) was “four-fold”.

With `CN(c1ccccc1)S(=O)(=O)c1ccc2[nH]c(=O)c(=O)[nH]c2c1` [Compound 33], the “decrease in Eis inhibitory activity compared to lead 29” value at purified Eis [2] is listed as 70 fold.

`CC(C)c1ccc(N(C)S(=O)(=O)c2ccc3[nH]c(=O)c(=O)[nH]c3c2)cc1` [Compound 35]: the “K204 MICKAN” value with Mtb K204 (anti-TB activity of KAN against Mtb K204 with compound, KAN line = KAN alone) was 2.5 µg/mL.

In the case of `CCN1CCN(CCNC2=NS(=O)(=O)C(c3ccc(F)cc3)=C2C)CC1` [Compound 37b], the “H37Rv MICKAN” value in the assay with H37Rv Mtb was 0.625 µg/mL. For the same molecule, the “K204 MICKAN” value in the assay on K204 Mtb fell in the range of 2.5 to 5 µg/mL.

Turning to `CCN1CCN(CCNC2=NS(=O)(=O)C(c3ccc(OC)cc3)=C2C)CC1` [Compound 37d], in the assay with H37Rv Mtb, the “H37Rv MICKAN” value lay within 0.625 to 1.25 µg/mL. The “K204 MICKAN” value in the assay with K204 Mtb lay within 5 to 10 µg/mL.

For orientation: inhibition means the drop in the measured response relative to a control, in per cent. As to `COc1cccc(N(C)S(=O)(=O)c2ccc3[nH]c(=O)c(=O)[nH]c3c2)c1` [Compound 39], the inhibition at 200 µM at AAC(2′)-Ic [3] (read-out: inhibition of AAC(2′)-Ic activity) turned out to be 15%. Besides, the “inhibition of KAN acetylation by AAC(3)-IV” value in the assay on AAC(3)-IV [4] was “did not inhibit”. In addition, the “inhibition of KAN acetylation by AAC(6′)-Ie/APH(2″)-Ia” value against AAC(6′)-Ie/APH(2″)-Ia [5] is reported as “did not inhibit”.

Consider `CN(c1ccc2ccccc2c1)S(=O)(=O)c1ccc2[nH]c(=O)c(=O)[nH]c2c1` [Compound 46], for which the “H37Rv MICKAN” value with Mtb H37Rv was ≤1.25 µg/mL. Also, at AAC(2′)-Ic [3], the “inhibition of KAN acetylation by AAC(2′)-Ic” value is recorded as “did not inhibit”. For the same molecule, in the assay with AAC(3)-IV [4], the “inhibition of KAN acetylation by AAC(3)-IV” value is “did not inhibit”. Besides, the “inhibition of KAN acetylation by AAC(6′)-Ie/APH(2″)-Ia” value against AAC(6′)-Ie/APH(2″)-Ia [5] is “did not inhibit”.

`CC1=C(c2ccccc2)S(=O)(=O)N=C1N1CCC(N2CCCCC2)CC1` [Compound 46a]: the “H37Rv MICKAN” value in the assay with H37Rv Mtb was 0.625 to 1.25 µg/mL. In addition, in the assay with K204 Mtb, the “K204 MICKAN” value was found to be 10 µg/mL.

The term IC50 denotes the midpoint of a concentration-inhibition curve. `CC1=C(c2ccc(F)cc2)S(=O)(=O)N=C1N1CCC(N2CCCCC2)CC1` [Compound 46b]: in the assay with H37Rv Mtb, the “H37Rv MICKAN” value was in the range of 0.625 to 1.25 µg/mL. Moreover, in the assay on K204 Mtb, the “K204 MICKAN” value came to 5 µg/mL. On AAC(6′)-Ie/APH(2″)-Ia [6], the “inhibition of AAC(6′)-Ie/APH(2″)-Ia” value is on record as “no inhibition”. Besides, in the assay on AAC(3)-IV [7], the “inhibition of AAC(3)-IV” value is listed as “no inhibition”. Moreover, the IC50 on purified Eis [8] was 0.092 ± 0.021 µM. In addition, the “inhibition of AAC(2′)-Ic” value against AAC(2′)-Ic [9] is listed as “no inhibition”.

Regarding `CC1=C(c2ccc(Cl)cc2)S(=O)(=O)N=C1N1CCC(N2CCCCC2)CC1` [Compound 46c], the “H37Rv MICKAN” value in the assay on H37Rv Mtb was determined as 0.625 µg/mL. In the assay with K204 Mtb, the “K204 MICKAN” value came to 2.5 µg/mL. Also, the “inhibition of AAC(6′)-Ie/APH(2″)-Ia” value against AAC(6′)-Ie/APH(2″)-Ia [6] is “no inhibition”. Moreover, in the assay with AAC(3)-IV [7], the “inhibition of AAC(3)-IV” value is given as “no inhibition”. Further, at AAC(2′)-Ic [9], the “inhibition of AAC(2′)-Ic” value is “no inhibition”.

With `CC1=C(c2cccc(Br)c2)S(=O)(=O)N=C1N1CCC(N2CCCCC2)CC1` [Compound 46h], in the assay on H37Rv Mtb, the “H37Rv MICKAN” value worked out at 0.625 µg/mL. The “K204 MICKAN” value in the assay on K204 Mtb turned out to be 5 µg/mL.

On to `CC1=C(c2ccc(C)c(C)c2)S(=O)(=O)N=C1N1CCC(C(=O)N2CCCC2)CC1` [Compound 52i], for which the “H37Rv MICKAN” value in the assay with H37Rv Mtb stood at 0.625 µg/mL. For the same molecule, in the assay with K204 Mtb, the “K204 MICKAN” value amounted to 2.5 µg/mL.

Consider `CCN(CC)C1=NS(=O)(=O)C(c2ccc(F)cc2)=C1C` [Compound 81b], for which, in the assay on H37Rv Mtb, the “H37Rv MICKAN” value stood at 0.625 µg/mL. In the assay with K204 Mtb, the “K204 MICKAN” value fell in the range of 2.5 to 5 µg/mL.

As to `CCN(CC)C1=NS(=O)(=O)C(c2cccc(Cl)c2)=C1C` [Compound 81g], the “H37Rv MICKAN” value in the assay on H37Rv Mtb came out at 0.625 µg/mL. Further, in the assay on K204 Mtb, the “K204 MICKAN” value amounted to 2.5 µg/mL.

For `CC1=C(c2ccc(F)cc2)S(=O)(=O)N=C1NCc1ccco1` [Compound 87b], the “H37Rv MICKAN” value in the assay with H37Rv Mtb is 1.25 µg/mL. Also, the “K204 MICKAN” value in the assay with K204 Mtb was found to be 10 µg/mL.

As to `CC1=C(c2ccc(F)cc2)S(=O)(=O)N=C1NCc1ccccc1` [Compound 89b], the “H37Rv MICKAN” value in the assay on H37Rv Mtb turned out to be 1.25 µg/mL. Besides, in the assay with K204 Mtb, the “K204 MICKAN” value was determined as 10 µg/mL.

Consider `CC1=C(c2ccc(C)c(C)c2)S(=O)(=O)N=C1NCC(=O)NCc1ccc2c(c1)OCO2` [Compound 115i], for which, in the assay on H37Rv Mtb, the “H37Rv MICKAN” value was found to be 0.625 µg/mL. The “K204 MICKAN” value with K204 Mtb turned out to be 10 µg/mL.

On to `CCCNC1=NS(=O)(=O)C(c2ccc(F)cc2)=C1C` [Compound 139b], for which the “H37Rv MICKAN” value with H37Rv Mtb was 0.625 µg/mL. The “K204 MICKAN” value with K204 Mtb was found to be 10 µg/mL.

For `CCCNC1=NS(=O)(=O)C(c2ccc(C)cc2)=C1C` [Compound 139e], in the assay on H37Rv Mtb, the “H37Rv MICKAN” value came out at 1.25 µg/mL. In the assay on K204 Mtb, the “K204 MICKAN” value amounted to 10 µg/mL.

As for `CCCNC1=NS(=O)(=O)C(c2ccc(C)c(C)c2)=C1C` [Compound 139i], the “H37Rv MICKAN” value in the assay on H37Rv Mtb is 1.25 µg/mL. Besides, the “K204 MICKAN” value in the assay on K204 Mtb came out at 10 µg/mL.

For the molecule `NC[C@H]1O[C@H](O[C@H]2[C@H](O)[C@@H](O[C@H]3O[C@H](CO)[C@@H](O)[C@H](N)[C@H]3O)[C@H](N)C[C@@H]2N)[C@H](O)[C@@H](O)[C@@H]1O` [KAN, kanamycin A, reference compound], in the assay with H37Rv Mtb, the “H37Rv MICKAN” value was found to be 1.25 µg/mL. Moreover, the “K204 MICKAN” value in the assay with K204 Mtb worked out at 10 µg/mL.
